Test system: FCA induced arthritis
Assay: FCA induced arthritis, non-injected paw volume
Type: in vivo, rat
Conditions: 10 mg/kg
Procedure: Anti-arthritis activity was studied by injecting Freund's complete adjuvant (FCA) in rat paw and measuring the edema formation and percentage inhibition of paw volume in the non-injected paw.
Male wistar rats weighing between 190-250 g were injected with 0.1 ml of FCA into the sub planter region of left hind paw. 0.1 ml of FCA solution consist of 6 mg of Complete Fraction of Mycobacterium Butyrium (Difco) being Suspended in heavy Paraffin Oil (Merck). Local oedema was produced after few hrs. Treatment with the test compound was carried out from day 13 to day 21 after FCA injection. Volume of the non-injected hind paw was recorded using plethysmometer (UGO Basile 7140).
The percentage inhibition of inflammation in the non-injected paw was measured as difference in the mean paw volume of the FCA control group to that of the treated animals.

`Cc1ccc(-c2cc(C(F)(F)F)nn2-c2ccc(S(N)(=O)=O)cc2)cc1` [Celecoxib] was tested, and the “Percentage reduction of FCA induced arthritis” value (Day 18) was 58.97 ± 35.93 % and the “Percentage reduction of FCA induced arthritis” value (Day 21) was 81.24 ± 22.35 %.

Reference: patent US8513203B2, “Composition and method thereof” (Indus Biotech Private Limited, priority 2011, dated 2013)
